Source: patent US11919886B2, “4,9-dioxo-4,9-dihydronaphtho[2,3-B]furan-3-carboxamide derivatives and uses thereof for treating proliferative diseases and infectious diseases” (Academia Sinica, priority 2016, dated 2024)
In brackets after ≈: the same amount, converted by molar mass. Where two headings read alike, the source gives them in different places.

Columns and labels:
H1975 cells = experiment: Replication fork number by MCM2 immunofluorescence staining; format: cell-based, human; conditions: H1975, 140 nM, 48 h
Procedure: In addition, to evaluate the effects of compound 1 on the progression of DNA replication, the number of replication forks was determined by MCM2 immunofluorescence staining in H1975 cells released from the G1 phase with DMSO and with compound 1 treatment. Exemplary results are shown in Panel (B) of FIG. 2. To evaluate the effects on DNA replication of compound 1, H1975 cells were arrested in G1 by contact inhibition. After 3 days, the cells were re-plated at a low density on cover slips and allowed to progress through the cell cycle. The cells were pulsed with 140 nM compound for 48 h and were fixed for 10 minutes at room temperature in 3.7% cold paraformaldehyde in PBS (pH 7.2), washed 3 times with PBS, and permeabilized for 10 minutes at room temperature in PBS containing 0.1% Triton X-100. The cells were blocked with PBS containing 3% bovine serum albumin and stained overnight at 4° C. with primary antibodies against MCM2, followed by incubation for 1 hour at 37° C. with Alexa Fluor 488 Goat Anti-Mouse IgG (Life Technologies Corporation), respectively. The cells were mounted onto microscope slides with ProLong Gold Antifade Reagent with DAPI (4′,6-Diamidino-2-phenylindole dihydrochloride) (Life Technologies Corporation) and then examined and photographed using Zeiss LSM 700 Confocal (Zeiss, Urbana, IL). […] (Panel (B) of FIG. 2)

MCM2 = target: T1, MCM2 (Homo sapiens, UniProt P49736); experiment: Chromatin-bound MCM2 after double thymidine block (immunoblotting); format: cell-based; conditions: H1975, 4.5 hour, 6 hour and 9 hour treatment
T1 construct: The MCM2 proteins were pulled down by incubating the H1975 lysate with compound 1-conjugated magnetic beads; endogenous in cells; host or cells: H1975
T1 sequence (P49736 whole entry): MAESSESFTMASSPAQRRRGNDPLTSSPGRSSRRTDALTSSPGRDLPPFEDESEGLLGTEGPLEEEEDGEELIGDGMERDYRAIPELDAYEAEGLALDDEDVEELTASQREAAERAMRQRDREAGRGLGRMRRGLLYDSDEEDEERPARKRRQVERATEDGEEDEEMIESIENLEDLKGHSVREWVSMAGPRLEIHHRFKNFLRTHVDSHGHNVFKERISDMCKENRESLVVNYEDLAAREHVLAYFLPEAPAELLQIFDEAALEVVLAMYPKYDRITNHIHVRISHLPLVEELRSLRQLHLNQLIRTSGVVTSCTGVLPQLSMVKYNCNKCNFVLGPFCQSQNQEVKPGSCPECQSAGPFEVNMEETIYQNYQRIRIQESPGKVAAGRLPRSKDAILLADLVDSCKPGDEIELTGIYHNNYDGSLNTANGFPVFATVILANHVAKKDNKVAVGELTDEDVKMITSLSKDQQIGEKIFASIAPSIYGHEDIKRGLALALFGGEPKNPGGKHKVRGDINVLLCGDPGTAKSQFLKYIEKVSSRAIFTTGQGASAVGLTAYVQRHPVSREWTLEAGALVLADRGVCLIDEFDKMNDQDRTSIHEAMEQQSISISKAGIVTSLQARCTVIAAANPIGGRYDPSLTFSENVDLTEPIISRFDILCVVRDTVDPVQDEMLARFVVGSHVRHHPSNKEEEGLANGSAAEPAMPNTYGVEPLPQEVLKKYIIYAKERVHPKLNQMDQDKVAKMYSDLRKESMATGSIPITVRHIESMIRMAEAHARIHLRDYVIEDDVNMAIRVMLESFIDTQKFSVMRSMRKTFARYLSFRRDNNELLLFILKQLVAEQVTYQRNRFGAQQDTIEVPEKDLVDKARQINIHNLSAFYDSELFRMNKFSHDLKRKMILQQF
Procedure: To explore whether Compound 1-induced protein degradation also interfered with the DNA binding ability of MCM2, HI 975 cells were synchronized using a double thymidine block followed by release with DMSO or compound 1 treatment for 3 to 9 hours. Exemplary results are shown in Panel (D) of FIG. 3. Then, the cells were harvested to obtain the chromatin-bound fraction, and MCM2 was detected by immunoblotting.

[1] = test system: Staphylococcus aureus (MSSA, MRSA); experiment: Disc diffusion method, inhibition zones; format: cell-based; conditions: for zone of inhibition at 5 µg/disc: Staphylococcus aureus, 5 μg
Staphylococcus aureus = experiment: MIC, broth micro dilution method; format: cell-based

**Q.** How did the “number of the replication fork” value (H1975 cells) turn out when Cc1oc2c(c1C(=O)NCCCn1ccnc1)C(=O)c1ccccc1C2=O [Compound 1, N-(3-(1H-Imidazol-1-yl)propyl)-2-methyl-4,9-dioxo-4,9-dihydronaphtho [2,3-b]furan-3-carboxamide] was run?
**A.** 176.8±8.721

**Q.** And the “chromatin-bound form of MCM2 vs DMSO control” value (MCM2)?
**A.** significantly reduced

**Q.** And the “antimicrobial activity against all the MRSA strains” value ([1]; 5 μg concentration, disc diffusion)?
**A.** showed antimicrobial activity

**Q.** And the “antibacterial activity against MRSA as compared to ciprofloxacin” value ([1]; MRSA)?
**A.** stronger antibacterial activity

**Q.** What about the zone of inhibition at 5 µg/disc ([1]; disc diffusion, read-out: average diameter of the inhibition zone) of the same molecule?
**A.** 25.5 mm

**Q.** And the zone of inhibition at 5 µg/disc ([1]; strain MRSA14979, read-out: Inhibition zone (mm))?
**A.** 25 mm

**Q.** And the zone of inhibition at 5 µg/disc ([1]; strain MRSA15211, read-out: Inhibition zone (mm))?
**A.** 26 mm

**Q.** What about the zone of inhibition at 5 µg/disc ([1]; strain NTUH-104-2, MRSA (SCCmec VT, ST45), read-out: Inhibition zone (mm)) of the same molecule?
**A.** 24 mm

**Q.** And the zone of inhibition at 5 µg/disc ([1]; strain NTUH-2102, MRSA (SCCmec II, ST5, FA-S), read-out: Inhibition zone (mm))?
**A.** 26 mm

**Q.** And the zone of inhibition at 5 µg/disc ([1]; strain NTUH-4578, MRSA (SCCmec IV, ST59), read-out: Inhibition zone (mm))?
**A.** 27 mm

**Q.** What about the zone of inhibition at 5 µg/disc ([1]; strain NTUH-9383, MRSA (SCCmec III, ST239, FA-R), read-out: Inhibition zone (mm)) of the same molecule?
**A.** 29 mm

**Q.** What about the zone of inhibition at 5 µg/disc ([1]; strain PM1, MRSA (SCCmec VT, ST59), read-out: Inhibition zone (mm)) of the same molecule?
**A.** 25 mm

**Q.** What about the zone of inhibition at 5 µg/disc ([1]; strain SA10451, read-out: Inhibition zone (mm)) of the same molecule?
**A.** 24 mm

**Q.** And the zone of inhibition at 5 µg/disc ([1]; strain SA10780, read-out: Inhibition zone (mm))?
**A.** 25 mm

**Q.** What about the zone of inhibition at 5 µg/disc ([1]; strain SAI 1863, read-out: Inhibition zone (mm)) of the same molecule?
**A.** 25 mm

**Q.** What about the zone of inhibition at 5 µg/disc ([1]; ATCC 25923 / MRSA / MSSA, strain ATCC25923, MSSA, read-out: Inhibition zone (mm)) of the same molecule?
**A.** 26 mm

**Q.** And the MIC (Staphylococcus aureus; ATCC 2921 / MSSA, read-out: MIC (μg/ml) 100%, strain ATCC2921 3, MSSA)?
**A.** 4 µg/mL (≈ 11 µM)

**Q.** What about the MIC (Staphylococcus aureus; ATCC 2921 / MSSA, strain ATCC2921 3, MSSA, read-out: MIC (μg/ml) 50%) of the same molecule?
**A.** 1 µg/mL (≈ 2.75 µM)

**Q.** And the MIC (Staphylococcus aureus; ATCC 12598 / MSSA, read-out: MIC (μg/ml) 100%, strain ATCC12598, MSSA)?
**A.** 4 µg/mL (≈ 11 µM)

**Q.** And the MIC (Staphylococcus aureus; ATCC 12598 / MSSA, strain ATCC12598, MSSA, read-out: MIC (μg/ml) 50%)?
**A.** 0.5 µg/mL (≈ 1.38 µM)

**Q.** What about the MIC (Staphylococcus aureus; ATCC 25923 / MSSA, read-out: MIC (μg/ml) 100%, strain ATCC25923, MSSA) of the same molecule?
**A.** 4 µg/mL (≈ 11 µM)

**Q.** And the MIC (Staphylococcus aureus; ATCC 25923 / MSSA, strain ATCC25923, MSSA, read-out: MIC (μg/ml) 50%)?
**A.** 2 µg/mL (≈ 5.5 µM)

**Q.** What about the MIC (Staphylococcus aureus; ATCC 33592 / MRSA, read-out: MIC (μg/ml) 100%, strain ATCC33592, MRSA (SCCmec III)) of the same molecule?
**A.** 1 µg/mL (≈ 2.75 µM)

**Q.** And the MIC (Staphylococcus aureus; ATCC 33592 / MRSA, strain ATCC33592, MRSA (SCCmec III), read-out: MIC (μg/ml) 50%)?
**A.** 0.5 µg/mL (≈ 1.38 µM)

**Q.** What about the MIC (Staphylococcus aureus; ATCC 49476 / MRSA, read-out: MIC (μg/ml) 100%, strain ATCC49476, MRSA (SCCmec III)) of the same molecule?
**A.** 1 µg/mL (≈ 2.75 µM)

**Q.** And the MIC (Staphylococcus aureus; ATCC 49476 / MRSA, strain ATCC49476, MRSA (SCCmec III), read-out: MIC (μg/ml) 50%)?
**A.** 0.5 µg/mL (≈ 1.38 µM)

**Q.** And the MIC (Staphylococcus aureus; MRSA, range over MRSA strains, broth micro dilution, read-out: MIC)?
**A.** 1 to 4 µg/mL (≈ 2.75 to 11 µM)

**Q.** What about the MIC (Staphylococcus aureus; MRSA, read-out: MIC (μg/ml) 100%, strain NTUH-1-2868, MRSA (SCCmec III, ST239, FA-R), clinical isolate) of the same molecule?
**A.** 1 µg/mL (≈ 2.75 µM)

**Q.** And the MIC (Staphylococcus aureus; MRSA, read-out: MIC (μg/ml) 100%, strain NTUH-104-2, MRSA (SCCmec VT, ST45), clinical isolate)?
**A.** 1 µg/mL (≈ 2.75 µM)

**Q.** And the MIC (Staphylococcus aureus; MRSA, read-out: MIC (μg/ml) 100%, strain NTUH-406-2, MRSA (SCCmec IV, spa type t008), clinical isolate)?
**A.** 4 µg/mL (≈ 11 µM)

**Q.** What about the MIC (Staphylococcus aureus; MRSA, read-out: MIC (μg/ml) 100%, strain NTUH-560, MRSA (SCCmec II, GM-S), clinical isolate) of the same molecule?
**A.** 4 µg/mL (≈ 11 µM)

**Q.** And the MIC (Staphylococcus aureus; MRSA, read-out: MIC (μg/ml) 100%, strain NTUH-2102, MRSA (SCCmec II, ST5, FA-S), clinical isolate)?
**A.** 4 µg/mL (≈ 11 µM)

**Q.** What about the MIC (Staphylococcus aureus; MRSA, read-out: MIC (μg/ml) 100%, strain NTUH-2417, MRSA (SCCmec III, SXT-S), clinical isolate) of the same molecule?
**A.** 1 µg/mL (≈ 2.75 µM)

**Q.** And the MIC (Staphylococcus aureus; MRSA, read-out: MIC (μg/ml) 100%, strain NTUH-2643, MRSA (SCCmec IV, spa type to 15), clinical isolate)?
**A.** 4 µg/mL (≈ 11 µM)

**Q.** And the MIC (Staphylococcus aureus; MRSA, read-out: MIC (μg/ml) 100%, strain NTUH-2967, MRSA (SCCmec VT, ST1), clinical isolate)?
**A.** 4 µg/mL (≈ 11 µM)

**Q.** And the MIC (Staphylococcus aureus; MRSA, read-out: MIC (μg/ml) 100%, strain NTUH-4400, MRSA (SCCmec II, ST5, FA-R), clinical isolate)?
**A.** 2 µg/mL (≈ 5.5 µM)

**Q.** What about the MIC (Staphylococcus aureus; MRSA, read-out: MIC (μg/ml) 100%, strain NTUH-4578, MRSA (SCCmec IV, ST59), clinical isolate) of the same molecule?
**A.** 4 µg/mL (≈ 11 µM)

**Q.** And the MIC (Staphylococcus aureus; MRSA, read-out: MIC (μg/ml) 100%, strain NTUH-8038, MRSA (SCCmec IV, spa type t189), clinical isolate)?
**A.** 4 µg/mL (≈ 11 µM)

**Q.** What about the MIC (Staphylococcus aureus; MRSA, read-out: MIC (μg/ml) 100%, strain NTUH-9383, MRSA (SCCmec III, ST239, FA-R), clinical isolate) of the same molecule?
**A.** 1 µg/mL (≈ 2.75 µM)
